Laboratory results reported in patent US8952162B2, “Triazolopyridines as phosphodiesterase inhibitors for treatment of dermal diseases” (Leo Pharma A/S, priority 2008, dated 2015).

The compounds below were run against Human recombinant PDE4 (Genbank accession no NM—006203) (Homo sapiens, UniProt Q08499) (assay: PDE4 assay (SPA, cAMP cleavage)). Conditions: Example 52; human recombinant PDE4, 1 hour incubation, cAMP 1×10^-5M, test compound up to 10 μM; read-out: PDE4 IC50 range.
Format: biochemical
Protocol: At the end of the incubation, the cleavage of the substrate was evaluated by the binding of the AMP product to SPA beads, which generate chemoluminescence when bound to the radioactive tracer. The AMP product inhibited the binding of the radioactive tracer to the beads, and the luminescent signal was competed.

Sequence of Human recombinant PDE4 (Genbank accession no NM—006203) (Q08499 1-673 isoform Q08499-2): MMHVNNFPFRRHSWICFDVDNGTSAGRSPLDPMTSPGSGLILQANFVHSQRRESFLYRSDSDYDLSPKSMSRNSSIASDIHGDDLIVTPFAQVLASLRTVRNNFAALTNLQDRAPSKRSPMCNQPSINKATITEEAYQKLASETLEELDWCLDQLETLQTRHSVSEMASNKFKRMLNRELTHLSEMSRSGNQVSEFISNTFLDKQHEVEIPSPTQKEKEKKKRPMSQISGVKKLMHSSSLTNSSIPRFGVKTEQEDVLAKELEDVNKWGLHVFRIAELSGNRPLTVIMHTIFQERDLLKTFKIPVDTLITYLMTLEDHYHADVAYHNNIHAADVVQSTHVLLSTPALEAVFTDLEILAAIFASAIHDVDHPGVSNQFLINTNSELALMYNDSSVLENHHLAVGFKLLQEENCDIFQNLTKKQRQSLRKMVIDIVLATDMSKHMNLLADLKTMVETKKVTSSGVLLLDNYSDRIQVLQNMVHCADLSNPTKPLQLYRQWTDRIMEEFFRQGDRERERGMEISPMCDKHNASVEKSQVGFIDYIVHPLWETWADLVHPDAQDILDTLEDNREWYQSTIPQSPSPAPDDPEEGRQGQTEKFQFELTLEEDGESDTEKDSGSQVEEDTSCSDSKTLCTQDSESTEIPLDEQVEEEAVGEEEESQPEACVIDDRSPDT

| IC50 | SMILES |
| --- | --- |
| < 500 nM | COc1ccc(-c2ccc(C(N)=O)cc2)n2nc(C3CC3)nc12 [Compound 123, 4-(2-Cyclopropyl-8-methoxy-[1,2,4]triazolo[1,5-a]pyridin-5-yl)-benzamide] |

Same assay, conditions: Example 53; PDE4 assay as in example 52; read-out: PDE4 IC50 range

| IC50 | SMILES |
| --- | --- |
| 500 to 1000 nM | COc1ccc(-c2cccc(C#N)c2)n2nc(C3(C(=O)N4CCCC4)CC3)nc12 [Compound 200, 3-{8-Methoxy-2-[1-(pyrrolidine-1-carbonyl)-cyclopropyl]-[1,2,4]triazolo[1,5-a]pyridin-5-yl}-benzonitrile] |
| < 500 nM | COc1ccc(-c2ccc(C#N)cc2)n2nc(C3(C(=O)NC4CC4)CC3)nc12 [Compound 213, 1-[5-(4-Cyano-phenyl)-8-methoxy-[1,2,4]triazolo[1,5-a]pyridin-2-yl]-cyclopropanecarboxylic acid cyclopropylamide] |
| < 500 nM | COc1ccc(-c2cccc(C#N)c2)n2nc(C3(CNC(=O)C(C)C)CC3)nc12 [Compound 154, N-{1-[5-(3-Cyano-phenyl)-8-methoxy-[1,2,4]triazolo[1,5-a]pyridin-2-yl]-cyclopropylmethyl}-isobutyramide] |
| < 500 nM | CCCNC(=O)OCC1(c2nc3c(OC)ccc(-c4cccc5c4CCC5=O)n3n2)CC1 [Compound 233, Propyl-carbamic acid 1-[8-methoxy-5-(1-oxo-indan-4-yl)-[1,2,4]triazolo[1,5-a]pyridin-2-yl]-cyclopropylmethyl ester] |
| < 500 nM | COc1ccc(-c2cncc(C#N)c2)n2nc(C3(COC(=O)NC(C)C)CC3)nc12 [Compound 232, Isopropyl-carbamic acid 1-[5-(5-cyano-pyridin-3-yl)-8-methoxy-[1,2,4]triazolo[1,5-a]pyridin-2-yl]-cyclopropylmethyl ester] |
| 500 to 1000 nM | COc1ccc(-c2cccc(C(C)=O)c2)n2nc(C3(C(=O)N4CCN(C)CC4)CC3)nc12 [Compound 222, 1-(3-{8-Methoxy-2-[1-(4-methyl-piperazine-1-carbonyl)-cyclopropyl]-[1,2,4]triazolo[1,5-a]pyridin-5-yl}-phenyl)-ethanone] |
| < 500 nM | COc1cc(-c2ccc(OC)c3nc(C4(COC(=O)NC(C)C)CC4)nn23)ccc1C#N [Compound 235, Isopropyl-carbamic acid 1-[5-(4-cyano-3-methoxy-phenyl)-8-methoxy-[1,2,4]triazolo[1,5-a]pyridin-2-yl]-cyclopropylmethyl ester] |
| < 500 nM | COc1ccc(-c2ccc(C#N)c(C)c2)n2nc(C3CC3)nc12 [Compound 161, 4-(2-Cyclopropyl-8-methoxyl-[1,2,4]triazolo[1,5-a]pyridin-5-yl)-2-methyl-benzonitrile] |
